Measurements reported in patent US12544395B2, “Combination compositions comprising a beta-lactamase inhibitor and uses thereof” (priority 2018, dated 2026).
Converted amounts (≈) assume the structure as drawn.

Tests used:
E. coli SI-PBLII = experiment: Broth microdilution MIC (strain enzymes: CTX-M2, TEM-1); assay type: cell-based; conditions: alone
E. coli 25922 = experiment: Broth microdilution MIC (strain enzymes: None detected); assay type: cell-based; conditions: alone
K. pneumoniae 153239 = experiment: Broth microdilution MIC (strain enzymes: SHV-11, TEM-1); assay type: cell-based; conditions: alone
[1] = tested on: panel of ESBL-producing Enterobacteriaceae (40 strains); experiment: Broth microdilution MIC50/MIC90 summary over the panel; assay type: cell-based
E. coli 3327 = experiment: Broth microdilution MIC (strain enzymes: TEM-1, SHV-12); assay type: cell-based; conditions: alone
E. coli SI-V502 = experiment: Broth microdilution MIC (strain enzymes: TEM-29, CTX-M15); assay type: cell-based; conditions: alone
E. coli SI-NO36 = experiment: Broth microdilution MIC (strain enzymes: SHV-11, TEM-1); assay type: cell-based; conditions: alone
K. pneumoniae 304487 = experiment: Broth microdilution MIC (strain enzymes: SHV-12,TEM-1); assay type: cell-based; conditions: alone
K. pneumoniae ESBL 8 #1 = experiment: Broth microdilution MIC (strain enzymes: TEM-1, SHV-12); assay type: cell-based; conditions: alone
K. pneumoniae ESBL 8 #2 = experiment: Broth microdilution MIC (strain enzymes: SHV-12, TEM-1); assay type: cell-based; conditions: alone
K. oxytoca 176877 = experiment: Broth microdilution MIC (strain enzymes: SHV-105); assay type: cell-based; conditions: alone
K. pneumoniae ESBL 10 = experiment: Broth microdilution MIC (strain enzymes: SHV-12, TEM-1); assay type: cell-based; conditions: alone
E. coli 1924 = experiment: Broth microdilution MIC (strain enzymes: TEM-12); assay type: cell-based; conditions: alone
E. coli SI-AIRT-4 = experiment: Broth microdilution MIC (strain enzymes: TEM-1); assay type: cell-based; conditions: alone
K. pneumoniae 329633 = experiment: Broth microdilution MIC (strain enzymes: SHV-5, TEM-1); assay type: cell-based; conditions: alone
E. coli 3174 = experiment: Broth microdilution MIC (strain enzymes: TEM-1, CTXM-15); assay type: cell-based; conditions: alone
K. pneumoniae 115468 = experiment: Broth microdilution MIC (strain enzymes: TEM-1); assay type: cell-based; conditions: alone
K. oxytoca 496 #2 = experiment: Broth microdilution MIC (strain enzymes: SHV-105, TEM-1); assay type: cell-based; conditions: alone
E. coli 2806 = experiment: Broth microdilution MIC (strain enzymes: SHV-12, TEM-1); assay type: cell-based; conditions: alone
K. pneumoniae 11/23 LF#2 = experiment: microbe, parasite or virus in culture; assay type: cell-based; conditions: alone
K. pneumoniae KI (KCl) = experiment: Broth microdilution MIC (strain enzymes: TEM-10); assay type: cell-based; conditions: alone
[2] = Excipient screening: solubility in SEDDS excipients; assay type: physicochemical; conditions: thermodynamic from solid
Protocol: The solubility of Compound 1-ethanolate was evaluated in a series of pharmaceutically acceptable excipients that are commonly used to prepare self-emulsifying drug delivery systems (SEDDS) for oral drug delivery. This class of formulation results in a solid solution of drug substance and excipients that enable the delivery of the drug substance and prevents precipitation upon contact with aqueous environments (i.e. the stomach). The indicated quantity of Compound 1-ethanolate was weighed into a 3 mL screw top glass vial outfitted with a magnetic stir bar. The vial was transferred to a controlled temperature heating block and 100 μL aliquots of each excipient was added with stirring. After each addition, the sample was evaluated for dissolution of the drug substance and additional aliquots of excipient were added until a clear, colorless solution was obtained. Table 22 summarizes the solubility screening for 25 excipients.

## CC1=C(C(=O)O)N2C(=O)[C@@H](NC(=O)[C@H](N)c3ccccc3)[C@H]2SC1 [Cephalexin, cefalexin, reference compound]
E. coli SI-PBLII
  MIC of cefalexin (LEX): 2 µg/mL
E. coli 25922
  MIC of cefalexin (LEX): 0.5 µg/mL
K. pneumoniae 153239
  MIC of cefalexin (LEX): 2 µg/mL
[1]; No BLI
  Cephalexin MIC50: >32 µg/mL
  Cephalexin MIC90: >32 µg/mL
E. coli 3327
  MIC of cefalexin (LEX): 16 µg/mL
E. coli SI-V502
  MIC of cefalexin (LEX): 2 µg/mL
E. coli SI-NO36
  MIC of cefalexin (LEX): 4 µg/mL
K. pneumoniae 304487
  MIC of cefalexin (LEX): 8 µg/mL
K. pneumoniae ESBL 8 #1
  MIC of cefalexin (LEX): 16 µg/mL
K. pneumoniae ESBL 8 #2
  MIC of cefalexin (LEX): 16 µg/mL
K. oxytoca 176877
  MIC of cefalexin (LEX): 8 µg/mL
K. pneumoniae ESBL 10
  MIC of cefalexin (LEX): 16 µg/mL
E. coli 1924
  MIC of cefalexin (LEX): 2 µg/mL
E. coli SI-AIRT-4
  MIC of cefalexin (LEX): 0.25 µg/mL
K. pneumoniae 329633
  MIC of cefalexin (LEX): 16 µg/mL
E. coli 3174
  MIC of cefalexin (LEX): 1 µg/mL
K. pneumoniae 115468
  MIC of cefalexin (LEX): 8 µg/mL
K. oxytoca 496 #2
  MIC of cefalexin (LEX): 16 µg/mL
E. coli 2806
  MIC of cefalexin (LEX): 4 µg/mL
K. pneumoniae 11/23 LF#2
  MIC of cefalexin (LEX): 2 µg/mL
K. pneumoniae KI (KCl)
  MIC of cefalexin (LEX): 1 µg/mL

## CCOB1Oc2c(cccc2C(=O)OCOC(=O)C(CC)CC)C[C@@H]1NC(=O)CC [Compound 1-ethanolate, ((2-ethylbutanoyl)oxy)methyl (R)-2-ethoxy-3-propionamido-3,4-dihydro-2H-benzo[e][1,2]oxaborinine-8-carboxylate]
[2]; 50 °C, oil or lipid, Labrafil M1944CS (Oleoyl polyoxyl-6 glycerides)
  solubility: > 140 mg/mL
[2]; 50 °C, oil or lipid, Labrafil M2125C5 (Linoleoyl polyoxyl-6 glycerides)
  solubility: > 152 mg/mL
[2]; 50 °C, oil or lipid, Plurol Oleique CC497 (Polyglyceryl-3 dioleate)
  solubility: > 375 mg/mL
[2]; 50 °C, organic solvent or mixture, Gelucire 44/14 (Lauroyl polyoxyl-32 glycerides)
  solubility: > 284 mg/mL
[2]; 50 °C, organic solvent or mixture, Kolliphor EL (Polyoxyl 35 hydrogenated castor oil)
  solubility: > 376 mg/mL
[2]; 50 °C, organic solvent or mixture, Kolliphor RH (PEG-40 Hydrogenated Castor Oil)
  solubility: ~172 mg/mL (≈ 410 mM)
[2]; 50 °C, organic solvent or mixture, Labrasol (Caprylocaproyl polyoxyl-8 glycerides)
  solubility: > 585 mg/mL
[2]; 50 °C, organic solvent or mixture, Polysorbate 80 (Polyoxyethylene (20) sorbitan monooleate)
  solubility: > 238 mg/mL
[2]; Capmul MCM (Caprylic/capric mono- & diglycerides), 50 °C, oil or lipid
  solubility: > 351 mg/mL
[2]; Ethanol, 50 °C, organic solvent or mixture
  solubility: > 568 mg/mL
[2]; Glycerol, 50 °C, organic solvent or mixture
  solubility: < 55.8 mg/mL
[2]; Lauroglycol (Propylene Glycol Monolaurate), neat excipient, 50 °C, oil or lipid
  solubility: > 292 mg/mL
[2]; Maisine CC (glyceryl monolinoleate), 50 °C, oil or lipid
  solubility: > 368 mg/mL
[2]; Myrj 52 (PEG-40 Stearate), neat excipient, 50 °C, organic solvent or mixture
  solubility: > 277 mg/mL
[2]; PEG-400, 50 °C, organic solvent or mixture, PEG-400, 50° C.
  solubility: > 498 mg/mL
[2]; PEG-1500, 50 °C, organic solvent or mixture, PEG-1500, 50° C.
  solubility: > 382 mg/mL
[2]; PEG-3350, 65 °C, organic solvent or mixture, PEG-3350, 65° C.
  solubility: > 280 mg/mL
[2]; Peceol (Glyceryl monooleate), neat excipient, 50 °C, oil or lipid
  solubility: > 413 mg/mL
[2]; Phosal 50 PG (50% PC and propylene glycol), 50 °C, oil or lipid
  solubility: > 419 mg/mL
[2]; Poloxamer 188, neat excipient, 65 °C, organic solvent or mixture, Poloxamer 188
  solubility: > 225 mg/mL
[2]; Propylene Glycol, 50 °C, organic solvent or mixture
  solubility: > 1210 mg/mL
[2]; Span 20 (Sorbitan monolaurate), neat excipient, 50 °C, organic solvent or mixture
  solubility: > 227 mg/mL
[2]; Span 80, 50 °C, organic solvent or mixture, Span 80, 50° C.
  solubility: > 276 mg/mL
[2]; TPGS, neat excipient, 50 °C, organic solvent or mixture
  solubility: > 229 mg/mL
[2]; Triacetin (glycerin triacetate), 50 °C, organic solvent or mixture
  solubility: > 84.2 mg/mL

## COCC1=C(C(=O)O)N2C(=O)[C@@H](NC(=O)/C(=N\OC)c3csc(N)n3)[C@H]2SC1 [Cefpodoxime, cefpodoxime, reference compound]
[1]; read-out: Cefpodoxime MIC50
  MIC50: > 32 µg/mL
[1]; read-out: Cefpodoxime MIC90
  MIC90: > 32 µg/mL
